According to paper PMC8843100, “Development of newly synthesised quinazolinone-based CDK2 inhibitors with potent efficacy against melanoma” (Journal of Enzyme Inhibition and Medicinal Chemistry, 2022):

Columns and labels:
Test in all cases: NCI-60 single dose screen, sulforhodamine B
Assay type in all cases: cell-based, human
[1] = tested on: PC-3; details: Prostate cancer PC-3; single dose 10^−5 M
Outline: (§1)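 Sulforhodamine B assay at one dose (10 µM). Cells grew 1 day, were treated, incubated 2 days more, then fixed and stained; inhibition is relative to untreated cells and time-zero density.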

[2] = tested on: NCI-H23; details: Non-small cell lung cancer NCI-H23; single dose 10^−5 M
Outline: as §1

[3] = tested on: HOP-92; details: Non-small cell lung cancer HOP-92; single dose 10^−5 M
Outline: as §1

[4] = tested on: M14; details: Melanoma M14; single dose 10^−5 M
Outline: as §1

[5] = tested on: SN12C; details: Renal cancer SN12C; single dose 10^−5 M
Outline: as §1

[6] = tested on: RXF 393; details: Renal cancer RXF 393; single dose 10^−5 M
Outline: as §1

[7] = tested on: MDA-MB-435; details: Melanoma MDA-MB-435; single dose 10^−5 M
Outline: as §1

[8] = tested on: OVCAR-4; details: Ovarian cancer OVCAR-4; single dose 10^−5 M
Outline: as §1

[9] = tested on: T-47D; details: Breast cancer T-47D; single dose 10^−5 M
Outline: as §1

[10] = tested on: ACHN; details: Renal cancer ACHN; single dose 10^−5 M
Outline: as §1

[11] = tested on: CAKI-1; details: Renal cancer CAKI-1; single dose 10^−5 M
Outline: as §1

[12] = tested on: NCI/ADR-RES; details: Ovarian cancer NCI/ADR-RES; single dose 10^−5 M
Outline: as §1

[13] = tested on: OVCAR-8; details: Ovarian cancer OVCAR-8; single dose 10^−5 M
Outline: as §1

[14] = tested on: SK-MEL-2; details: Melanoma SK-MEL-2; single dose 10^−5 M
Outline: as §1

[15] = tested on: SK-MEL-5; details: Melanoma SK-MEL-5; single dose 10^−5 M
Outline: as §1

[16] = tested on: 786-0; details: Renal cancer 786-0; single dose 10^−5 M
Outline: as §1

[17] = tested on: MALME-3M; details: Melanoma MALME-3M; single dose 10^−5 M
Outline: as §1

[18] = tested on: A549/ATCC; details: Non-small cell lung cancer A549/ATCC; single dose 10^−5 M
Outline: as §1

[19] = tested on: SF-295; details: CNS cancer SF-295; single dose 10^−5 M
Outline: as §1

[20] = tested on: HCT-15; details: Colon cancer HCT-15; single dose 10^−5 M
Outline: as §1

[21] = tested on: CCRF-CEM; details: Leukaemia CCRF-CEM; single dose 10^−5 M
Outline: as §1

[22] = tested on: SF-268; details: CNS cancer SF-268; single dose 10^−5 M
Outline: as §1

[23] = tested on: RPMI-8226; details: Leukaemia RPMI-8226; single dose 10^−5 M
Outline: as §1

[24] = tested on: HCC-2998; details: Colon cancer HCC-2998; single dose 10^−5 M
Outline: as §1

SMILES | GI% at 10^−5 M [1] | GI% at 10^−5 M [2] | GI% at 10^−5 M [3] | GI% at 10^−5 M [4] | GI% at 10^−5 M [5] | GI% at 10^−5 M [6] | GI% at 10^−5 M [7] | GI% at 10^−5 M [8] | GI% at 10^−5 M [9] | GI% at 10^−5 M [10] | GI% at 10^−5 M [11] | GI% at 10^−5 M [12] | GI% at 10^−5 M [13] | GI% at 10^−5 M [14] | GI% at 10^−5 M [15] | GI% at 10^−5 M [16] | GI% at 10^−5 M [17] | GI% at 10^−5 M [18] | GI% at 10^−5 M [19] | GI% at 10^−5 M [20] | further results
O=c1c2ccccc2nc(COc2ccccc2)n1NS(=O)(=O)c1ccccc1 [Compound 5a, N-(4-oxo-2-(phenoxymethyl)quinazolin-3(4H)-yl)benzenesulfonamide] | – (– means GI < 10%) | 11.73% | 10.25% | – (– means GI < 10%) | 11.46% | – (– means GI < 10%) | – (– means GI < 10%) | – (– means GI < 10%) | – (– means GI < 10%) | 11.23% | 15.07% | – (– means GI < 10%) | – (– means GI < 10%) | – (– means GI < 10%) | – (– means GI < 10%) | – (– means GI < 10%) | – (– means GI < 10%) | – (– means GI < 10%) | – (– means GI < 10%) | – (– means GI < 10%) | GI% at 10^−5 M [21]: – (– means GI < 10%); GI% at 10^−5 M [22]: – (– means GI < 10%); GI% at 10^−5 M [23]: – (– means GI < 10%); GI% at 10^−5 M [24]: – (– means GI < 10%)
O=C(CNn1c(COc2ccccc2)nc2ccccc2c1=O)Nc1ccccc1 [Compound 4a, 2-((4-oxo-2-(phenoxymethyl)quinazolin-3(4H)-yl)amino)-N-phenylacetamide] | 10.95% | 16.55% | 15.94% | – (– means GI < 10%) | 13.08% | – (– means GI < 10%) | – (– means GI < 10%) | – (– means GI < 10%) | – (– means GI < 10%) | – (– means GI < 10%) | 12.78% | – (– means GI < 10%) | – (– means GI < 10%) | – (– means GI < 10%) | – (– means GI < 10%) | – (– means GI < 10%) | – (– means GI < 10%) | – (– means GI < 10%) | – (– means GI < 10%) | – (– means GI < 10%) | GI% at 10^−5 M [21]: – (– means GI < 10%); GI% at 10^−5 M [22]: – (– means GI < 10%); GI% at 10^−5 M [23]: – (– means GI < 10%); GI% at 10^−5 M [24]: – (– means GI < 10%)
CN1CCN(CC(=O)Nn2c(COc3ccccc3)nc3ccccc3c2=O)CC1 [Compound 8a, 2–(4-methylpiperazin-1-yl)-N-(4-oxo-2-(phenoxymethyl)quinazolin-3(4H)-yl)acetamide] | – (– means GI < 10%) | – (– means GI < 10%) | – (– means GI < 10%) | 21.06% | – (– means GI < 10%) | – (– means GI < 10%) | 94.15% | – (– means GI < 10%) | 32.2% | – (– means GI < 10%) | 28.85% | 28.41% | – (– means GI < 10%) | 12.84% | 17.11% | – (– means GI < 10%) | 20.47% | – (– means GI < 10%) | – (– means GI < 10%) | 44.04% | GI% at 10^−5 M [21]: 10.65%; GI% at 10^−5 M [22]: – (– means GI < 10%); GI% at 10^−5 M [23]: 23.17%; GI% at 10^−5 M [24]: 10.06%
O=C(CNn1c(COc2ccccc2)nc2ccccc2c1=O)Nc1ccc(Cl)cc1 [Compound 4c, N-(4-chlorophenyl)-2-((4-oxo-2-(phenoxymethyl)quinazolin-3(4H)-yl)amino)acetamide] | 15.9% | – (– means GI < 10%) | 29.33% | – (– means GI < 10%) | 19.15% | – (– means GI < 10%) | – (– means GI < 10%) | 11.8% | 29.33% | – (– means GI < 10%) | 23.58% | 10.99% | – (– means GI < 10%) | – (– means GI < 10%) | – (– means GI < 10%) | – (– means GI < 10%) | 12.02% | – (– means GI < 10%) | – (– means GI < 10%) | – (– means GI < 10%) | GI% at 10^−5 M [21]: – (– means GI < 10%); GI% at 10^−5 M [22]: – (– means GI < 10%); GI% at 10^−5 M [23]: – (– means GI < 10%); GI% at 10^−5 M [24]: – (– means GI < 10%)
COc1ccc(N2CCN(CC(=O)Nn3c(COc4ccccc4)nc4ccccc4c3=O)CC2)cc1 [Compound 8c, 2–(4-(4-methoxyphenyl)piperazin-1-yl)-N-(4-oxo-2-(phenoxymethyl)quinazolin-3(4H)-yl)acetamide] | 14.02% | – (– means GI < 10%) | – (– means GI < 10%) | – (– means GI < 10%) | – (– means GI < 10%) | – (– means GI < 10%) | – (– means GI < 10%) | – (– means GI < 10%) | – (– means GI < 10%) | – (– means GI < 10%) | – (– means GI < 10%) | – (– means GI < 10%) | – (– means GI < 10%) | – (– means GI < 10%) | – (– means GI < 10%) | – (– means GI < 10%) | – (– means GI < 10%) | – (– means GI < 10%) | – (– means GI < 10%) | – (– means GI < 10%) | GI% at 10^−5 M [21]: – (– means GI < 10%); GI% at 10^−5 M [22]: – (– means GI < 10%); GI% at 10^−5 M [23]: – (– means GI < 10%); GI% at 10^−5 M [24]: – (– means GI < 10%)
